Experimental data as given in patent US20220370484A1, “NOVEL USE OF NICOTINAMIDE MONONUCLEOTIDE (NMN) AND NICOTINAMIDE RIBOSIDE (NR)” (Senju Pharmaceutical Co., Ltd., priority 2019, published 2022).

How the values were obtained:
Format in all cases: in vivo, mouse
[1] = test system: meibomian gland basal cells; assay: Cell proliferation assay through BrdU incorporation staining after eye drop instillation; details: 1.5 year old WT mice, 5% eye drop (5 μL/eye, 6 times/day, only right eye), 2 weeks, vs Vehicle (phosphate buffered saline)
Procedure: [table] BrdU (100 mg/kg body weight, Sigma-Aldrich) was intraperitoneally injected 30 minutes prior to harvesting eyelid tissue from a mouse. An eyelid comprising meibomian glands was immobilized with 4% PFA and embedded in paraffin. Antigens were activated by pressurizing a 5 μm thick segment for 2.5 minutes in 10 mM sodium citrate buffer (pH 6.0). After incubating the segment for 24 hours at 4° C. by using an anti-BrdU antibody (1:1000 dilution; Rockland Inc.), the immune response was made visible with 3,3′-diaminobenzidine (DAB) using secondary antibody Envision+ System—HRP Labelled Polymer Anti-Rabbit (Dako). For each tissue segment, BrdU positive cells in the basal cell layer of a meibomian gland were counted on a digital microscope picture captured at 20× magnification. The length of the outer circumference of a meibomian gland acinus was measured with ImageJ software, and the total BrdU positive cell count was normalized with the length of the outer circumference. The BrdU positive cells were counted by using 16 segments per individual.

[2] = test system: lipid components in meibomian glands; assay: Lipid analysis of meibomian glands after eye drop instillation (APCI); details: 1.75 year old WT mice, eye drop instillation 3 months as Example 3, compared to Vehicle (phosphate buffered saline)
Procedure: (1) The Eye Drop Instillation Experiment is Performed in the Same Manner as Example 3. Meibomian glands are harvested from an eyelid of a euthanized mouse. Two meibomian glands harvested from one of the eyes of each animal are each placed in a glass vial containing 1 mL of chloroform:methanol=2:1 (v/v) solvent mixture for lipid extraction, and lipids are extracted. The extract is relocated into a new vial. The extract can be stored for several months at −20° C. or lower by evaporating the solution under nitrogen. The extract is then dissolved in a suitable solvent, and lipid composition is analyzed by APCI.

meibomian gland tissue = assay: Lipid stained tissue observation (meibomian gland volume evaluation), whole mount Herxheimer's staining; details: 1.75 year old WT mice, 5% eye drop (5 μL/eye, 4 times/day, only right eye), 3 months, vs Vehicle (phosphate buffered saline)
Procedure: Meibomian gland tissue in mice was stained in accordance with the following protocol.
As a preparation method of 100 mL of staining solution, a bottle of stock solution prepared by dissolving Sudan IV to saturate in 100% ethanol was left standing in advance, and 70 mL of as much of the supernatant, 20 mL of 10% NaOH, and 10 mL of ultrapure water were mixed, tumbled for 5 minutes, and centrifuged to allow powder to precipitate. The supernatant was filtered with a 0.45 μm filter and used as a staining solution.
The cervical vertebrae of mice was dislocated, and skin of the head including meibomian glands was sampled. The sample was immersed in 4% paraformaldehyde while keeping the sample flat with a drawing pin, and immobilized using a rotator at 4° C. for 24 hours. The periphery of meibomian glands was trimmed. The meibomian glands were immersed in 50% ethanol by using a rotator at room temperature for 10 minutes, then immersed for 20 minutes in 70% ethanol, and immersed in a staining solution using a rotator at room temperature for 24 hours in a falcon tube. The meibomian glands were then immersed for 10 minutes in 70% ethanol, and washing was repeated several times to confirm that the meibomian glands were stained well. The meibomian glands were immersed for 24 hours in amino alcohol in glycerin prepared by mixing 3.75 mL of 80% amino alcohol with 8.25 mL glycerin. […]

Hsd3b6 = assay: Measurement of meibomian gland Hsd3b6 enzymatic activity (steroid synthesis activity) after eye drop instillation; details: 1.5 year old WT mice, 5% eye drop (5 μL/eye, 6 times/day, only right eye), 2 weeks, vs Vehicle (phosphate buffered saline)
Procedure: The meibomian gland Hsd3b6 enzymatic activity in mice was measured in accordance with the following protocol.
Hank's balanced salt solution (HBSS) was bubbled with […] for 1 hour or more, and dispensed in 2 mL tubes at 200 μL each. The lid was closed while filled with […]. HBSS was warmed with a 37° C. water bath. A reaction incubator was warmed to 37° C., and a micro tube mixer was installed therein.
The main power of a flow liquid scintillation counter (Perkin Elmer, Radiomatic 625TR) was turned on, and the main power of HPLC (Waters, 2795 Separations Module) was turned on to perform setup. Mobile phase A was replaced with water, and mobile phase B was replaced with acetonitrile. Once a column (Kanto Chemical, LiChroCART 250-4, LiChrosphere 100RP-18, particle size: 5 μm, 4 mm I.D.×250 mm) was installed, 40% acetonitrile (ACN) (A: 60%, B: 40%) was flown at 0.7 mL/min. The column oven temperature at this time was set to 40° C.
^3H-DHEA was added to 1 mL of 40% ACN contained in a 2 mL tube, and the mixture was tapped. A microtube was set on an HPLC holder, and single administration was selected. The peak of contaminant produced after 22 minutes was not collected. […]

Compound | BrdU positive cell count in meibomian gland basal cells [1] | Lipid components in a meibomian gland [2] | meibomian gland volume (meibomian gland tissue) | Hsd3b6 enzymatic activity in a meibomian gland (Hsd3b6)
NC(=O)c1ccc[n+]([C@@H]2O[C@H](CO)[C@@H](O)[C@H]2O)c1 [NR, Nicotinamide riboside] | increased significantly | normalized | significant increase | –
Nicotinamide mononucleotide [NMN] | increased significantly | normalized | significant increase | increased significantly
